From patent publication US20150119363A1, “METHODS OF TREATING BACTERIAL INFECTIONS” (Rampex Pharmaceuticals, Inc., priority 2012, published 2015)

Experiments:
[1] = tested on: K. pneumoniae KP1081 (NDM-1, CMY-6, SHV-11, CTX-M-15, TEM-1); test: Aztreonam/Tigemonam MIC at various concentrations of BLI; type: cell-based; conditions: Klebsiella pneumoniae, read-out: Aztreonam MIC (μg/ml) in the presence of BLI
Procedure: MIC values for each bacterial strain were measured for each antimicrobial compound at various concentrations of each BLI.

[2] = tested on: E. coli EC1061 (NDM-1 CMY-6); test: as above; type: cell-based; conditions: Escherichia coli, read-out: Aztreonam MIC (μg/ml) in the presence of BLI
Procedure: MIC values for each bacterial strain were measured for each antimicrobial compound at various concentrations of each BLI. […]

KP1008 KPC-2 = test: Dose titration biapenem potentiation assay (MPC1); type: cell-based, Klebsiella pneumoniae; conditions: biapenem 1 μg/mL
Procedure: (§1) The potency and spectrum of β-lactamase inhibitors is also determined by assessing their biapenem potentiation activity in a dose titration potentiation assay using strains expressing serine carbapemenases (such as KPC). The potentiation effect is observed as the ability of BLI compounds to inhibit growth in the presence of sub-inhibitory concentration of biapenem. […] Biapenem is present in the test medium at 1 μg/mL. Compounds tested at the highest concentration of 40 μg/mL. […] Table 5 summarizes BLI potency of biapenem potentiation (MPC1). Biapenem MIC for each strain is also shown.

KP1004 KPC-2 = test: Dose titration biapenem potentiation assay (MPC1); type: cell-based, Klebsiella pneumoniae; conditions: biapenem 1 μg/mL
Procedure: as §1

EC1007 KPC-3 = test: Dose titration biapenem potentiation assay (MPC1); type: cell-based, Escherichia coli; conditions: biapenem 1 μg/mL
Procedure: as §1

ECL1004 NMC-A = test: Dose titration biapenem potentiation assay (MPC1); type: cell-based, Enterobacter cloacae; conditions: biapenem 1 μg/mL
Procedure: as §1

SMILES	MIC [1]	MIC [2]	BPM MPC1 KP1008 KPC-2 (KP1008 KPC-2)	BPM MPC1 KP1004 KPC-2 (KP1004 KPC-2)	BPM MPC1 EC1007 KPC-3 (EC1007 KPC-3)	BPM MPC1 ECL1004 NMC-A (ECL1004 NMC-A)
C[C@H]1[C@H](NC(=O)/C(=N\OC(C)(C)C(=O)O)c2csc(N)n2)C(=O)N1S(=O)(=O)O [Aztreonam, reference compound]	256 µg/mL	16 µg/mL	–	–	–	–
O=C(O)C[C@@H]1CC[C@H](NC(=O)Cc2ccncc2)B(O)O1 [Compound 49, 2-((3R,6S)-2-hydroxy-3-(2-(pyridin-4-yl)acetamido)-1,2-oxaborinan-6-yl)acetic acid]	–	–	X (X = MPC1 of less than 1 μg/mL.)	X (X = MPC1 of less than 1 μg/mL.)	X (X = MPC1 of less than 1 μg/mL.)	X (X = MPC1 of less than 1 μg/mL.)
N[C@H]1CC[C@@H](CC(=O)N[C@H]2CC[C@@H](CC(=O)O)OB2O)CC1 [Compound 50, 2-((3R,6S)-3-(2-(4-aminocyclohexyl)acetamido)-2-hydroxy-1,2-oxaborinan-6-yl)acetic acid]	–	–	X (X = MPC1 of less than 1 μg/mL.)	X (X = MPC1 of less than 1 μg/mL.)	X (X = MPC1 of less than 1 μg/mL.)	X (X = MPC1 of less than 1 μg/mL.)
NC1(CC(=O)N[C@H]2CC[C@@H](CC(=O)O)OB2O)CCCCC1 [Compound 51, 2-((3R,6S)-3-(2-(1-aminocyclohexyl)acetamido)-2-hydroxy-1,2-oxaborinan-6-yl)acetic acid]	–	–	X (X = MPC1 of less than 1 μg/mL.)	X (X = MPC1 of less than 1 μg/mL.)	X (X = MPC1 of less than 1 μg/mL.)	Y (Y = MPC1 of 1 μg/mL to 5 μg/mL.)
O=C(O)C[C@@H]1CC[C@H](NC(=O)C[C@H]2CCCCN2)B(O)O1 [Compound 52, 2-((3R,6S)-2-hydroxy-3-(2-((R)-piperidin-2-yl)acetamido)-1,2-oxaborinan-6-yl)acetic acid]	–	–	X (X = MPC1 of less than 1 μg/mL.)	X (X = MPC1 of less than 1 μg/mL.)	X (X = MPC1 of less than 1 μg/mL.)	Y (Y = MPC1 of 1 μg/mL to 5 μg/mL.)
O=C(O)C[C@@H]1CC[C@H](NC(=O)C[C@@H]2CCCCN2)B(O)O1 [Compound 53, 2-((3R,6S)-2-hydroxy-3-(2-((S)-piperidin-2-yl)acetamido)-1,2-oxaborinan-6-yl)acetic acid]	–	–	X (X = MPC1 of less than 1 μg/mL.)	X (X = MPC1 of less than 1 μg/mL.)	X (X = MPC1 of less than 1 μg/mL.)	Y (Y = MPC1 of 1 μg/mL to 5 μg/mL.)
O=C(O)C[C@@H]1CC[C@H](NC(=O)Cn2ccnc2-c2ccccc2)B(O)O1 [Compound 54, 2-((3R,6S)-2-hydroxy-3-(2-(2-phenyl-1H-imidazol-1-yl)acetamido)-1,2-oxaborinan-6-yl)acetic acid]	–	–	X (X = MPC1 of less than 1 μg/mL.)	X (X = MPC1 of less than 1 μg/mL.)	X (X = MPC1 of less than 1 μg/mL.)	X (X = MPC1 of less than 1 μg/mL.)
Cc1nc2ccccc2n1CCC(=O)N[C@H]1CC[C@@H](CC(=O)O)OB1O [Compound 55]	–	–	X (X = MPC1 of less than 1 μg/mL.)	X (X = MPC1 of less than 1 μg/mL.)	X (X = MPC1 of less than 1 μg/mL.)	X (X = MPC1 of less than 1 μg/mL.)
O=C(O)C[C@@H]1CC[C@H](NC(=O)c2ccc(Cn3cnnn3)cc2)B(O)O1 [Compound 56, 2-((3R,6S)-3-(4-((1H-tetrazol-1-yl)methyl)benzamido)-2-hydroxy-1,2-oxaborinan-6-yl)acetic acid]	–	–	X (X = MPC1 of less than 1 μg/mL.)	X (X = MPC1 of less than 1 μg/mL.)	X (X = MPC1 of less than 1 μg/mL.)	X (X = MPC1 of less than 1 μg/mL.)
O=C(O)C[C@@H]1CC[C@H](NC(=O)Cc2ccccn2)B(O)O1 [Compound 57, 2-((3R,6S)-2-hydroxy-3-(2-(pyridin-2-yl)acetamido)-1,2-oxaborinan-6-yl)acetic acid]	–	–	X (X = MPC1 of less than 1 μg/mL.)	X (X = MPC1 of less than 1 μg/mL.)	X (X = MPC1 of less than 1 μg/mL.)	X (X = MPC1 of less than 1 μg/mL.)
C[C@]1(Cn2ccnn2)[C@H](C(=O)N[C@H]2CC[C@@H](CC(=O)O)OB2O)N2C(=O)C[C@H]2S1(=O)=O [Compound 59, 2-[(3R,6S)-2-hydroxy-3-[(2S,3S,5R)-3-methyl-4,4,7-trioxo-3-(1H-1,2,3-triazol-1-ylmethyl)-4λ^6-thia-1-azabicyclo[3.2.0]heptane-2-amido]-1,2-oxaborinan-6-yl]acetic acid]	–	–	X (X = MPC1 of less than 1 μg/mL.)	Y (Y = MPC1 of 1 μg/mL to 5 μg/mL.)	X (X = MPC1 of less than 1 μg/mL.)	X (X = MPC1 of less than 1 μg/mL.)
O=C(O)C[C@@H]1CC[C@H](NC(=O)CCc2nnc(-c3ccccc3)o2)B(O)O1 [Compound 60, 2-((3R,6S)-2-hydroxy-3-(3-(5-phenyl-1,3,4-oxadiazol-2-yl)propanamido)-1,2-oxaborinan-6-yl)acetic acid]	–	–	X (X = MPC1 of less than 1 μg/mL.)	X (X = MPC1 of less than 1 μg/mL.)	X (X = MPC1 of less than 1 μg/mL.)	X (X = MPC1 of less than 1 μg/mL.)
Nc1nc(/C(=N/OCc2cc(=O)c(O)cn2O)C(=O)N[C@H]2CC[C@@H](CC(=O)O)OB2O)cs1 [Compound 62, 2-((3R)-3-((Z)-2-(2-aminothiazol-4-yl)-2-((1,5-dihydroxy-4-oxo-1,4-dihydropyridin-2-yl)methoxyimino)acetamido)-2-hydroxy-1,2-oxaborinan-6-yl)acetic acid]	–	–	X (X = MPC1 of less than 1 μg/mL.)	X (X = MPC1 of less than 1 μg/mL.)	X (X = MPC1 of less than 1 μg/mL.)	X (X = MPC1 of less than 1 μg/mL.)
O=C(O)CC1CCC[C@H](NC(=O)Cc2cccs2)B(O)O1 (stereo partly drawn) [Compound 63, 2-((3R)-2-hydroxy-3-(2-(thiophen-2-yl)acetamido)-1,2-oxaborepan-7-yl)acetic acid]	–	–	X (X = MPC1 of less than 1 μg/mL.)	Y (Y = MPC1 of 1 μg/mL to 5 μg/mL.)	Y (Y = MPC1 of 1 μg/mL to 5 μg/mL.)	Y (Y = MPC1 of 1 μg/mL to 5 μg/mL.)
O=C(O)CC1C=CC[C@H](NC(=O)Cc2cccs2)B(O)O1 (stereo partly drawn) [Compound 64, 2-((3R)-2-hydroxy-3-(2-(thiophen-2-yl)acetamido)-2,3,4,7-tetrahydro-1,2-oxaborepin-7-yl)acetic acid]	–	–	X (X = MPC1 of less than 1 μg/mL.)	Y (Y = MPC1 of 1 μg/mL to 5 μg/mL.)	X (X = MPC1 of less than 1 μg/mL.)	X (X = MPC1 of less than 1 μg/mL.)
CCOC(=O)C[C@@H]1CC[C@H](NC(=O)Cc2cccs2)B(O)O1 [Compound 65, ethyl 2-((3R,6S)-2-hydroxy-3-(2-(thiophen-2-yl)acetamido)-1,2-oxaborinan-6-yl)acetate]	–	–	X (X = MPC1 of less than 1 μg/mL.)	Y (Y = MPC1 of 1 μg/mL to 5 μg/mL.)	Y (Y = MPC1 of 1 μg/mL to 5 μg/mL.)	Z (Z = MPC1 of greater than 5 μg/mL.)
O=C(O)C[C@@H]1CC[C@H](NC(=O)Cc2cc(F)cc(F)c2)B(O)O1 [Compound 66, 2-((3R,6S)-3-(2-(3,5-difluorophenyl)acetamido)-2-hydroxy-1,2-oxaborinan-6-yl)acetic acid]	–	–	X (X = MPC1 of less than 1 μg/mL.)	X (X = MPC1 of less than 1 μg/mL.)	X (X = MPC1 of less than 1 μg/mL.)	X (X = MPC1 of less than 1 μg/mL.)
